Patent US20260001928A1 (CORTERIA PHARMACEUTICALS, priority 2022, published 2026)
*1 amine or outer side, *2 acyl side, *3 side chain or, on linkers, in order; H or OH if unused. Where a SMILES comes first, the peptide text is derived from it. Side-chain parts run from the residue outwards. [ ]: non-standard residue; d: D form. The star is where a group is joined. C18 diacid = O=C(O)CCCCCCCCCCCCCCCCC(=O)*; γGlu = O=C(O)[C@H](CCC(=O)[*:2])N[*:1]; NMeI = CC[C@H](C)[C@H](NC)C(=O)O; AEEA = NCCOCCOCC(=O)O; Aib = CC(C)(N)C(=O)O

Molecular target: T1, CFR1R receptor (Homo sapiens, UniProt P34998)
T1 construct: host or cells: CHO-K1 (clone 2)
T1 sequence (P34998 24-415): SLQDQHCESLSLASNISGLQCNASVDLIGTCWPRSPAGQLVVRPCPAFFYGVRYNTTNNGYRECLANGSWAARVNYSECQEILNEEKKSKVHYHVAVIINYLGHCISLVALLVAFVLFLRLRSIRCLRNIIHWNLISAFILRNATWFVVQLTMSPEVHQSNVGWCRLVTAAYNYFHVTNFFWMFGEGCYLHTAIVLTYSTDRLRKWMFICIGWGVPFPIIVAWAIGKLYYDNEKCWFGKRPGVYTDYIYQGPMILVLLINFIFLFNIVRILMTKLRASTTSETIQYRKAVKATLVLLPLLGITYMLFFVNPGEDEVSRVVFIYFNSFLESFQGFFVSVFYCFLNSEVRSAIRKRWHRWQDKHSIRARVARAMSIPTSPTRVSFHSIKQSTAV
Experiment: Activity at anti-target CFR1R receptor, cAMP assay in CRF1R-overexpression CHO-K1 cells
Assay type: cell-based
Conditions: 100% = Sauvagine at 100 nM
Method: Assessment of activity at anti-target CFR1R receptor is done using the same procedure as the one described for the TeloHEAC cell line. The CRF1R-overexpression CHO-K1 cell line clone 2 was purchased from PerkinElmer. Cells were grown in a 10 cm dish at 37° C./5% CO2 in medium (F12 (Hams)/10% FBS/400 μg/ml G418) to near confluence. At that stage, cells were harvested, resuspended to 10 million/mL in culture medium without G418 and with 10% DMSO. 1 mL vial aliquots were slowly frozen to −80° C. in isopropanol and then transferred in liquid nitrogen for storage. These vials were used to run the experiment following the procedure reported in the previous paragraph, except for the compound used in the control well to define the 100% activation (Sauvagine at 100 nM) and the cell density (final cell density: 4000 cells/well)

Compound	Emax (% I)
CC[C@H](C)[C@H](NC(C)=O)C(=O)N[C@H](C(=O)N[C@@H](CC(C)C)C(=O)N[C@@H](CO)C(=O)N[C@@H](CC(C)C)C(=O)N[C@@H](CC(=O)O)C(=O)N[C@@H](C(=O)N1CCC[C@H]1C(=O)N[C@H](C(=O)N[C@@H](CCCCN)C(=O)N[C@@H](CC(C)C)C(=O)N[C@@H](CCCCNC(=O)COCCOCCNC(=O)COCCOCCNC(=O)CC[C@H](NC(=O)CC[C@H](NC(=O)CCCCCCCCCCCCCCCCC(=O)O)C(=O)O)C(=O)O)C(=O)N[C@@H](CCC(N)=O)C(=O)NC(C)(C)C(=O)N[C@@H](CC(C)C)C(=O)N[C@@H](CC(C)C)C(=O)N[C@@H](CCCCN)C(=O)N[C@@H](CCC(N)=O)C(=O)N[C@@H](CCC(=O)O)C(=O)N[C@@H](CCCNC(=N)N)C(=O)N[C@@H](CCC(N)=O)C(=O)N[C@@H](CCCCN)C(=O)N[C@@H](CCCCN)C(=O)N[C@@H](CCC(N)=O)C(=O)N[C@@H](CCCNC(=N)N)C(=O)N[C@@H](CCC(=O)O)C(=O)N[C@@H](CCC(N)=O)C(=O)N[C@@H](C)C(=O)N[C@@H](CCC(=O)O)C(=O)N[C@@H](CCCCN)C(=O)N[C@@H](CC(N)=O)C(=O)N[C@H](C(=O)N[C@@H](CCC(N)=O)C(=O)N[C@H](C(=O)N[C@@H](CC(C)C)C(=O)N[C@@H](CCC(=O)O)C(=O)N[C@@H](CCC(N)=O)C(=O)N[C@H](C(N)=O)C(C)C)[C@@H](C)CC)C(C)C)[C@@H](C)CC)C(C)C)C(C)C [compound 27] (Ac-IVLSLD[dV]PIKLK([AEEA-AEEA-γGlu-γGlu-C18 diacid])Q[Aib]LLKQERQKKQREQAEKNVQILEQV-NH2)	7 % I
CC[C@H](C)[C@H](NC)C(=O)N[C@H](C(=O)N[C@@H](CC(C)C)C(=O)N[C@@H](CO)C(=O)N[C@@H](CC(C)C)C(=O)N[C@@H](CC(=O)O)C(=O)N[C@@H](C(=O)N1CCC[C@H]1C(=O)N[C@H](C(=O)N[C@@H](CCCCN)C(=O)N[C@@H](CC(C)C)C(=O)N[C@@H](CCCCNC(=O)COCCOCCNC(=O)COCCOCCNC(=O)CC[C@H](NC(=O)CC[C@H](NC(=O)CCCCCCCCCCCCCCCCC(=O)O)C(=O)O)C(=O)O)C(=O)N[C@@H](CCC(N)=O)C(=O)NC(C)(C)C(=O)N[C@@H](CC(C)C)C(=O)N[C@@H](CC(C)C)C(=O)N[C@@H](CCCCN)C(=O)N[C@@H](CCC(N)=O)C(=O)N[C@@H](CCC(=O)O)C(=O)N[C@@H](CCCNC(=N)N)C(=O)N[C@@H](CCC(N)=O)C(=O)N[C@@H](CCCCN)C(=O)N[C@@H](CCCCN)C(=O)N[C@@H](CCC(N)=O)C(=O)N[C@@H](CCCNC(=N)N)C(=O)N[C@@H](CCC(=O)O)C(=O)N[C@@H](CCC(N)=O)C(=O)N[C@@H](C)C(=O)N[C@@H](CCC(=O)O)C(=O)N[C@@H](CCCCN)C(=O)N[C@@H](CC(N)=O)C(=O)N[C@H](C(=O)N[C@@H](CCC(N)=O)C(=O)N[C@H](C(=O)N[C@@H](CC(C)C)C(=O)N[C@@H](CCC(=O)O)C(=O)N[C@@H](CCC(N)=O)C(=O)N[C@H](C(N)=O)C(C)C)[C@@H](C)CC)C(C)C)[C@@H](C)CC)C(C)C)C(C)C [compound 28] (H-[NMeI]VLSLD[dV]PIKLK([AEEA-AEEA-γGlu-γGlu-C18 diacid])Q[Aib]LLKQERQKKQREQAEKNVQILEQV-NH2)	6 % I
